Experimental data published in patent US5935973A, “Heterocyclcarboxamide derivatives and their use as therapeutic agents” (Knoll Aktiengesellschaft, priority 1995, dated 1999).

Experiments:
5-HT1A receptors = target: T1, 5-HT1A receptors (Rattus norvegicus, UniProt P19327); assay: inhibition of [3H]8-OH-DPAT binding to 5-HT1A receptors in rat hippocampal tissue; settings: rat hippocampus; for inhibition at 1 µM: at 10^-6 M, [3H]8-OH-DPAT, read-out: % displacement of radio ligand, 5-HT1A; for Ki: [3H]8-OH-DPAT 2 nM, 25° C., 30 min
T1 construct: Hippocampal tissue from the brains of male Sprague-Dawley rats; from tissue; host or cells: rat hippocampus membranes
T1 sequence (P19327 1-422): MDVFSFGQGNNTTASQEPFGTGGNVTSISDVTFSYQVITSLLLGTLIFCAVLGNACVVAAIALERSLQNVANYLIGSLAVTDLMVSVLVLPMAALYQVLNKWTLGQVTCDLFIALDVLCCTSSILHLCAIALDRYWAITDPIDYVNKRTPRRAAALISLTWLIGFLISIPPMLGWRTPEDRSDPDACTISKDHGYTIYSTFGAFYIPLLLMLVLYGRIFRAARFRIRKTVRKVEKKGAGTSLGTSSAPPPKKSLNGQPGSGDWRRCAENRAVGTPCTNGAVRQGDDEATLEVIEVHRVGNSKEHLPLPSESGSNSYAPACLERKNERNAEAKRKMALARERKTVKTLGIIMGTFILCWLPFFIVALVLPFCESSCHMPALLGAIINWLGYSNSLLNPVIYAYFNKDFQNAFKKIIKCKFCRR
Description: Hippocampal tissue from the brains of male Sprague-Dawley rats (Charles River; weight range 150-250 g) was homogenised in ice-cold 50 mM Tris-HCl buffer (pH 7.7 when measured at 25° C., 1:40 w/v) and centrifuged at 30,000 g at 4° C. for 10 minutes. The pellet was rehomogenised in the same buffer, incubated at 37° C. for 10 minutes and centrifuged at 30,000 g at 4° C. for 10 minutes. The final pellet was resuspended in 50 mM Tris-HCl buffer (pH 7.7) containing 4 mM CaCl2, 0.1% L-ascorbic acid and 10 μM pargyline hydrochloride (equivalent to 6.25 mg wet weight of tissue/ml) and used immediately in the binding assay. Aliquots (400 μl; equivalent to 2.5 mg wet weight of tissue/tube) of this suspension were added to tubes containing the ligand (50 μl; 2 nM) and distilled water (50 μl total binding) or 5-HT (50 μl; 10 μM; non-specific binding) or test compound (50 μl; at a single concentration of 10^-6 M or at 10 concentrations ranging from 10^-11 -10^-3 M). The ligand was [^3 H]8-hydroxy-2-(dipropylamino)tetralin ([^3 H]8-OH-DPAT) and the mixture was incubated at 25° C. for 30 minutes before the incubation was terminated by rapid filtration.
(§1) The filters were washed with ice-cold Tris-HCl buffer and dried. The filters were punched out into vials, scintillation fluid added and radioactivity determined by liquid scintillation counting. The percentage displacement of specific binding of the tritiated ligand was calculated for the single concentration (10^-6 M) of test compound. Displacement curves were then produced for those compounds which displaced ≥50% of specific binding of the tritiated ligand at 10^-6 M using a range of concentrations of the compound. The concentration which gave 50% inhibition of specific binding (IC50) was obtained from the curve. The inhibition coefficient Ki was then calculated using the formula [formula] in which [ligand] is the concentration of the tritiated ligand used and KD is the equilibrium dissociation constant for the ligand.

D2 dopamine receptors = target: T2, D2 dopamine receptors (Rattus norvegicus, UniProt P61169); assay: inhibition of tritiated (S)-sulpiride binding to D2 dopamine receptors in rat striatal tissue; settings: rat striatum; for inhibition at 1 µM: at 10^-6 M, tritiated (S)-sulpiride, read-out: % displacement of radio ligand, D2; for Ki: tritiated (S)-sulpiride 1 nM, 4° C., 40 min
T2 construct: Striatal tissue from the brains of male Charles River CD rats; from tissue; host or cells: rat striatum membranes
Description: Striatal tissue from the brains of male Charles River CD rats weighing between 140-250 g were homogenised in ice-cold 50 mM Tris-HCl buffer (pH 7.7 when measured at 25° C.) and centrifuged at 40,000 g for 10 minutes. The pellet was resuspended in Tris salts buffer (50 mM Tris-HCl buffer containing 120 mM NaCl, 5 mM KCl, 2 mM CaCl2 and 1 mM MgCl2 with the addition of 6 mM ascorbic acid; pH 7.7 when measured at 25° C.), and again centrifuged at 40,000 g for 10 minutes. The final pellet was stored at -80° C. Before each test the pellet was resuspended in Tris salts buffer (equivalent to 2 mg wet weight of tissue/ml). Aliquots (720 μl; equivalent to 1.44 mg wet weight of tissue/tube) of this suspension were then added to tubes containing the ligand (40 μl; 1 nM) and Tris salts buffer (40 μl; total binding) or spiroperidol (40 μl; 10 nM; non-specific binding) or test compound (40 μl; at a single concentration of 10^-6 M or at 6 concentrations ranging from 10^-11 -10^-4 M). The ligand was tritiated (S)-sulpiride and the mixture was incubated at 4° C. for 40 minutes before the incubation was terminated by rapid filtration.
The filters were washed with ice-cold Tris-HCl buffer and dried. The filters were punched out in to vials, scintillation fluid added and were left for about 20 hours before being counted by scintillation spectrophotometry. The percentage displacement of specific binding of the tritiated ligand was calculated for the single concentration (10^-6 M) of test compound. Displacement curves were then produced over a range of concentrations for those compounds which displaced ≥50% of specific binding of the tritiated ligand at 10^-6 M. The concentration which gave a 50% inhibition of specific binding (IC50) was obtained from the curve. The inhibition coefficient Ki was then calculated using the formula [formula] in [ligand] is the concentration of the tritiated ligand used and KD is the 2 equilibrium dissociation constant for the ligand.

α1-adrenoceptors = assay: inhibition of [7-methoxy-3H]prazosin binding to α1-adrenoceptors in rat whole cortical tissue; settings: rat whole cortex, 30 min; for % displacement of radio ligand, α1: at 10^-6 M, [7-methoxy-3H]prazosin, 1 µM; for Ki: [7-methoxy-3H]prazosin 0.1 nM, 30° C.
Description: Whole cortical tissue from the brains of male Charles River CD rats weighing between 150-250 g were homogenised in ice-cold 50 mM Tris-HCl, pH 7.6 (at 25° C.; 1:40 w/v) and centrifuged at 1000 g at 4° C. for 10 minutes. The supernatant was centrifuged at 30,000 g at 4° C. for 10 minutes. The pellet was rehomogenised in 50 mM Tris-HCl, pH 7.6 (1:40 w/v) and centrifuged at 30,000 g at 4° C. for 10 minutes. The final pellet was resuspended in 50 mM Tris-HCl, pH 7.6 (equivalent to 12.5 mg wet weight of tissue/ml) and used immediately in the binding assay. Aliquots (400 μl; equivalent to 5 mg wet weight of tissue/tube) of this suspension were added to tubes containing the ligand (50 μl; 0.1 nM) and distilled water (50 μl; total binding) or phentolamine (50 μl; 5 μM; non-specific binding) or test compound (50 μl; at a single concentration of 10^-6 M or at 10 concentrations ranging from 10^-11 -10^-3 M). The ligand was [7-methoxy-^3 H]prazosin and the mixture was incubated at 30° C. for 30 minutes before the incubation was terminated by rapid filtration.
as §1

T2 sequence (P61169 whole entry): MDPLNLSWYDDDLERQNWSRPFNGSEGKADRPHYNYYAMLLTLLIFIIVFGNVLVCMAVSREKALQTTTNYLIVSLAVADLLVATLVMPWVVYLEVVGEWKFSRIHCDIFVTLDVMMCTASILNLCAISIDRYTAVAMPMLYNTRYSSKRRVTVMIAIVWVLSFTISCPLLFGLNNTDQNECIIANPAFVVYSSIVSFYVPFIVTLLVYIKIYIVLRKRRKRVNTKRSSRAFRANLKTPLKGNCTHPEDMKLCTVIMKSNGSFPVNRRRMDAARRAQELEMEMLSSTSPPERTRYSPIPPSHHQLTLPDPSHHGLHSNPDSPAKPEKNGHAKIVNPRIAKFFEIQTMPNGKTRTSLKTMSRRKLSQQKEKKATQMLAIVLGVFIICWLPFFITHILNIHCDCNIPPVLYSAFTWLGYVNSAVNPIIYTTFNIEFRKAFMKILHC

| inhibition at 1 µM (5-HT1A receptors) | inhibition at 1 µM (D2 dopamine receptors) | % displacement of radio ligand, α1 (α1-adrenoceptors) | Ki (5-HT1A receptors) | Ki (D2 dopamine receptors) | Ki (α1-adrenoceptors) | SMILES |
| --- | --- | --- | --- | --- | --- | --- |
| 80% | 101% | 93% | – | – | – | CSc1ncccc1C(=O)NCC1CCN(C[C@H]2COc3cccc(C(F)(F)F)c3O2)CC1 [Example 48, (S)-2-(methylthio)-N-{[1-(8-trifluoromethyl-1,4-benzodioxan-2-ylmethyl)-4-piperidyl]methyl}pyridine-3-carboxamide] |
| 86% | 104% | 98% | – | – | – | Cc1ncccc1C(=O)NCC1CCN(C[C@H]2COc3cccc(C(F)(F)F)c3O2)CC1 [Example 46, (S)-2-methyl-N-{[1-(8-trifluoromethyl-1,4-benzodioxan-2-ylmethyl)-4-piperidyl]methyl}pyridine-3-carboxamide] |
| 64% | 57% | 38% | – | – | – | CSc1ncccc1C(=O)NCC1CCN(C[C@H]2COc3ccc(F)cc3O2)CC1 [Example 44, (S)-N-{[1-(7-fluoro-1,4-benzodioxan-2-ylmethyl)-4-piperidyl]methyl}-2-(methylthio)pyridine-3-carboxamide] |
| – | – | – | 35 nM | 18 nM | 99 nM | Nc1ncccc1C(=O)NCC1CCN(C[C@H]2COc3ccc(Br)cc3O2)CC1 [Example 21, (S)-2-amino-N-{[1-(7-bromo-1,4-benzodioxan-2-ylmethyl)-4-piperidyl]methyl}pyridine-3-carboxamide] |
| 63% | 68% | 41% | – | – | – | Cc1ccc2c(c1)O[C@@H](CN1CCC(CNC(=O)c3cccnc3C)CC1)CO2 [Example 31, (S)-2-methyl-N-{[1-(7-methyl-1,4-benzodioxan-2-ylmethyl)-4-piperidyl]-methyl}pyridine-3-carboxamide] |
| 97% | 101% | 98% | – | – | – | O=C(NCC1CCN(C[C@H]2COc3cccc(Cl)c3O2)CC1)c1ccc(-n2cccc2)nc1 [Example 50, (S)-N-{[1-(8-chloro-1,4-benzodioxan-2-ylmethyl)-4-piperidyl)methyl}-6-(1-pyrrolyl)pyridine-3-carboxamide] |
| 92% | 91% | 62% | – | – | – | O=C(NCC1CCN(C[C@H]2COc3ccc(Cl)cc3O2)CC1)c1cncc(Br)c1 [Example 42, (S)-5-bromo-N-{[1-(7-chloro-1,4-benzodioxan-2-ylmethyl)-4-piperidyl]methyl}pyridine-3-carboxamide] |
| 68% | 70% | 29% | – | – | – | CSc1ncccc1C(=O)NCC1CCN(C[C@H]2COc3ccc(Cl)cc3O2)CC1 [Example 41, (S)-N-{[1-(7-chloro-1,4-benzodioxan-2-ylmethyl)-4-piperidyl]methyl}-2-(methylthio)pyridine-3-carboxamide] |
| 85% | 87% | 43% | – | – | – | O=C(NCC1CCN(C[C@H]2COc3ccc(Br)cc3O2)CC1)c1cncc(Br)c1 [Example 39, (S)-5-bromo-N-{[1-(7-bromo-1,4-benzodioxan-2-ylmethyl)-4-piperidyl]methyl}pyridine-3-carboxamide] |
| – | – | – | 34 nM | 16 nM | 9 nM | O=C(NCC1CCN(C[C@H]2COc3cccc(Cl)c3O2)CC1)c1cccnc1 [Example 24, (S)-N-{[1-(8-chloro-1,4-benzodioxan-2-ylmethyl)-4-piperidyl]methyl}pyridine-3-carboxamide] |
| 95% | 101% | 73% | – | – | – | O=C(NCC1CCN(C[C@H]2COc3ccc(Br)cc3O2)CC1)c1cccnc1 [Example 35, (S)-N-{[1-(7-bromo-1,4-benzodioxan-2-ylmethyl)-4-piperidyl]methyl}pyridine-3-carboxamide] |
| 75% | 100% | 94% | – | – | – | O=C(NCC1CCN(C[C@H]2COc3cccc(C(F)(F)F)c3O2)CC1)c1ccc(-n2cccc2)nc1 [Example 47, (S)-6-(1-pyrrolyl)-N-{[1-(8-trifluoromethyl-1,4-benzodioxan-2-ylmethyl)-4-piperidyl]methyl}pyridine-3-carboxamide] |
| 78% | 85% | 61% | – | – | – | Cc1ccc2c(c1)O[C@@H](CN1CCC(CNC(=O)c3cccnc3)CC1)CO2 [Example 30, (S)-N-{[1-(7-methyl-1,4-benzodioxan-2-ylmethyl)-4-piperidyl]methyl}pyridine-3-carboxamide] |
| 96% | 101% | 98% | – | – | – | Nc1ncccc1C(=O)NCC1CCN(C[C@H]2COc3cccc(OS(=O)(=O)C(F)(F)F)c3O2)CC1 [Example 28, (S)-2-amino-N-{[1-(8-trifluoromethanesulphonyloxy-1,4-benzodioxan-2-ylmethyl)-4-piperidyl]methyl}pyridine-3-carboxamide] |
| 80% | 98% | 54% | – | – | – | Cc1ncccc1C(=O)NCC1CCN(C[C@H]2COc3ccc(Br)cc3O2)CC1 [Example 36, (S)-N-{[1-(7-bromo-1,4-benzodioxan-2-ylmethyl)-4-piperidyl]methyl}-2-methylpyridine-3-carboxamide] |
